{
  "source": "patent US20240299328A1",
  "about": "“COMPOSITIONS COMPRISING 15-HEPE AND METHODS OF TREATING AND/OR PREVENTING HEMATOLOGIC DISORDERS AND RELATED DISEASES” (Afimmune Limited, priority 2023, published 2024)",
  "key": {"rats": {"test_system": "rats", "details": "26-week oral, once daily; cited from earlier work"}, "NAFLD patients": {"test_system": "NAFLD patients", "source_text": "Safety Assessments included the following: medical history; physical examination; ECG; vital signs; clinical laboratory safety tests (e.g., hematology, serum biochemistry, coagulation, lipid profile, and urinalysis); virology; pregnancy test; blood sampling; pharmacokinetic sampling; exploratory blood collection; biomarker blood collection; urine DOA and alcohol breath test; adverse event assessment; concomitant medication; bioanalysis; sample, storage, handling; and shipping; and restrictions. A detailed description of each is provided below.\nAEs were recorded in the case report form, defining relationship to IMP and severity.\nSAE: If a patient experienced a serious adverse event after the first dose of the study drug, the event was recorded as a SAE. A SAE is characterized as an untoward medical occurrence at any dose to include any of the following: results in death, is life threatening, requires in-patient hospitalization or prolongation of existing hospitalization, or results in persistent or significant disability/incapacity. The term “life-threatening” refers to an event in which the patient was at risk of death at the time of the event.\nSafety Analysis: Demographic, medical history and physical examination data were listed for each patient and summarized descriptively. All AEs recorded during the study were coded to system organ class and preferred terms using the current version of the Medical Dictionary for Regulatory Activities (MedDRA). AEs were tabulated and summarized by treatment, relationship to treatment, seriousness and severity. Clinical laboratory values (e.g., hematology, biochemistry, and urinalysis) were listed for each patient by treatment and day. Values outside the laboratory normal ranges were listed separately with associated comments as to their clinical significance, with potentially clinically significant abnormalities highlighted and summarized by treatment. Clinical laboratory values obtained prior to dosing were defined as baseline values. Alcohol breath test and DOA test results were listed for each patient. Individual values of vital signs were listed and summarized descriptively for each treatment and day. 12 lead ECG assessments were listed for each patient with all associated comments and summarized by treatment and day. Concomitant medications (if any), categorized by medication group and subgroup according to the latest version of the World Health Organization drug dictionary, were listed and summarized by treatment. In general, appropriate descriptive statistics according to the nature of the variable were applied. Categorical variables were presented using counts and percentage, whilst continuous variables were presented using mean, standard deviation, median, minimum, maximum, coefficient of variation and number of patients."}, "[1]": {"details": "0.5% HPMC vehicle; same preparation and storage conditions; concentrations bracketing those used; cited from earlier work"}, "UUO mice": {"test_system": "UUO mice", "test": "UUO study: Sirius red staining, kidney fibrosis area", "type": "in vivo", "protocol": "Histopathological analysis: To visualize collagen deposition, kidney sections were stained using picro-Sirius red solution. For quantification of interstitial fibrosis area, bright field images in the corticomedullary region were captured using a digital camera at 200-fold magnification, and the positive areas in 5 fields/section were measured."}, "[2]": {"test_system": "TGF-β signaling in HepG2 cells", "test": "TGF-β-induced EMT protein expression and type II TGF-β receptor in HepG2 cells", "type": "cell-based, human", "details": "liver cell lines (HepG2, LX2)", "protocol": "The effects of 15-HEPE on TGF-β-induced signaling and cellular responses were determined. To test the effect of 15-HEPE on TGF-β-induced signaling, the activities of 15-HEPE to regulate TGF-β-stimulated Smad2 phosphorylation and nuclear translocation, both of which are key signaling events leading to TGF-β-induced cellular responses, were tested. One important biological activity of TGF-β is transcriptional activation of genes responsible for epithelial-mesenchymal transition (EMT), which is a crucial event in wound healing, tissue fibrosis, and cancer progression. The effect of 15-HEPE on TGFβ-induced epithelial mesenchymal transition related proteins (such as fibronectin, PAI-1, and N-cadherin etc.) expression in HepG2 and LXR cells were assessed. HepG2 cells (human hepatoma cell line) were treated in increasing doses of 15-HEPE stage II in DMEM containing 0.1% of FBS for 1 hour and continually stimulated with or without 200 picomolar (pM) of TGF-β for 48 hours. […] HepG2 cells (human hepatoma cell line) were treated in increasing doses of 15-HEPE stage II in DMEM containing 0.1% of FBS for 1 hour and continually stimulated with or without 200 picomolar (pM) of TGF-β for 48 hours. The two panels shown in FIG. 18A are two separate experiments run under the same experimental conditions."}, "Sprague Dawley rats [3]": {"test_system": "Sprague Dawley rats", "test": "26 week rat toxicity study: hematology", "type": "in vivo", "details": "male rats, 26 weeks", "protocol": "(§1) The test and control items were administered to the appropriate animals by once daily oral gavage 7 days a week for a minimum of 26 weeks. The volume for each animal was based on the most recent body weight measurements. The doses were given using a syringe with attached gavage cannula. The first day of dosing was designated as Day 1. The dosing formulations were removed from the refrigerator and stirred for at least 30 minutes before dosing. The dosing formulations were also stirred continuously during dosing.\n(§2) Sample Collection: Blood was collected via the tail vein unless immediately prior to necropsy, when blood was collected from the orbital sinus under non-recoverable isoflurane anesthesia. Blood was collected in ascending animal order unless samples were collected prior to necropsy where the order of euthanasia was followed. Additional blood samples were obtained (e.g., due to clotting of non-serum samples) if permissible sampling frequency and blood volume were not exceeded. After collection, samples were transferred to the appropriate laboratory for processing. Samples were collected according to the following table.\nHematology: A 0.5 mL blood sample was collected using the anticoagulant K2EDTA. Blood smears were labelled, stained, and stored. The blood smears were analyzed according to the following parameters.\n(§3) Animals: The study used male and female Sprague Dawley rats purchased from Charles River UK Limited (Margate, Kent, UK). The target age at the initial dosing was 7-8 weeks. The target weight at the initial dosing was 175-300 g (males) and 120-250 g (females). Each animal was identified using a subcutaneously implanted electronic cylindrical, “glass-sealed” TROVAN microchip."}, "Sprague Dawley rats [4]": {"test_system": "Sprague Dawley rats", "test": "26 week rat toxicity study: coagulation", "type": "in vivo", "details": "male rats, 26 weeks", "protocol": "as §1, §2\nCoagulation: A 0.5 mL blood sample was collected using the anticoagulant 3.8% (w/v) trisodium citrate for processing to plasma. To assess coagulation the following coagulation parameters were measured.\nas §3"}, "[5]": {"details": "6000/3000 mg/kg/day oral gavage"}},
  "note": "Where two headings read alike, the source gives them in different places. Marks after values point to notes of the source that are not given here.",
  "data": [
    {"smiles": "CC/C=C\\C[C@H](O)/C=C/C=C\\C/C=C\\C/C=C\\CCCC(=O)OCC", "note": "[DS102, 15(S)-hydroxy-(5Z,8Z,11Z,13E,17Z)-eicosapentaenoic acid ethyl ester]", "values": [
      {"measurement": "highest dose tested, showing no adverse effects", "setting": "rats", "result": 1, "unit": "mg/kg/day"},
      {"measurement": "AEs leading to treatment discontinuation", "setting": "NAFLD patients; 1 g DS102 (n = 32)", "result": "0 n (%)"},
      {"measurement": "Death", "setting": "NAFLD patients; 1 g DS102 (n = 32)", "result": "0 n (%)"},
      {"measurement": "Patients with ≥1 AE", "setting": "NAFLD patients; 1 g DS102 (n = 32)", "result": "19 (59.4) n (%)"},
      {"measurement": "Patients with ≥1 AE related to study drug", "setting": "NAFLD patients; 1 g DS102 (n = 32)", "result": "2 (6.3) n (%)"},
      {"measurement": "Patients with ≥1 SAE", "setting": "NAFLD patients; 1 g DS102 (n = 32)", "result": "0 n (%)"},
      {"measurement": "SAEs related to drug study", "setting": "NAFLD patients; 1 g DS102 (n = 32)", "result": "0 n (%)"},
      {"measurement": "AEs leading to treatment discontinuation", "setting": "NAFLD patients; 2 g DS102 (n = 30)", "result": "0 n (%)"},
      {"measurement": "Death", "setting": "NAFLD patients; 2 g DS102 (n = 30)", "result": "0 n (%)"},
      {"measurement": "Patients with ≥1 AE", "setting": "NAFLD patients; 2 g DS102 (n = 30)", "result": "15 (50.0) n (%)"},
      {"measurement": "Patients with ≥1 AE related to study drug", "setting": "NAFLD patients; 2 g DS102 (n = 30)", "result": "3 (10.0) n (%)"},
      {"measurement": "Patients with ≥1 SAE", "setting": "NAFLD patients; 2 g DS102 (n = 30)", "result": "1 (3.3) n (%)"},
      {"measurement": "SAEs related to drug study", "setting": "NAFLD patients; 2 g DS102 (n = 30)", "result": "0 n (%)"},
      {"measurement": "safety and tolerance", "setting": "NAFLD patients; NAFLD patients, 1 g or 2 g per day, 16 weeks, compared to placebo", "result": "safe and well tolerated"},
      {"measurement": "stability of the test item in the vehicle", "setting": "[1]", "result": "stable"},
      {"measurement": "Sirius red-positive area (%)_Median", "setting": "UUO mice; 50 mg/kg PO QD Day 0-13, Day 14, median", "result": "4.19 ± 3.33", "unit": "%"},
      {"measurement": "Sirius red-positive area (%)_Median", "setting": "UUO mice; 500 mg/kg PO QD Day 0-13, Day 14, median", "result": "3.08 ± 1.16", "unit": "%"},
      {"measurement": "TGF-β signaling", "setting": "[2]", "result": "directly inhibit"},
      {"measurement": "Red Cell Distribution Width (RDW), Mean", "setting": "Sprague Dawley rats [3]; 2000 mg/kg/day oral gavage", "result": "13.91** %"},
      {"measurement": "Red blood cell count (RBC), Mean", "setting": "Sprague Dawley rats [3]; 2000 mg/kg/day oral gavage", "result": "8.67 10^12/L"},
      {"measurement": "Reticulocyte count (RETIC), Mean", "setting": "Sprague Dawley rats [3]; 2000 mg/kg/day oral gavage", "result": "1.546e+11", "unit": "L⁻¹"},
      {"measurement": "Red Cell Distribution Width (RDW), Mean", "setting": "Sprague Dawley rats [3]; [5]", "result": "13.60** %"},
      {"measurement": "Red blood cell count (RBC), Mean", "setting": "Sprague Dawley rats [3]; [5]", "result": "8.81** 10^12/L"},
      {"measurement": "Reticulocyte count (RETIC), Mean", "setting": "Sprague Dawley rats [3]; [5]", "result": "141.46** 10^9/L"},
      {"measurement": "Activated Partial Thromboplastin Time (APTT), Mean", "setting": "Sprague Dawley rats [4]; 2000 mg/kg/day oral gavage", "result": "15.03* sec"},
      {"measurement": "Fibrinogen (FIB), Mean", "setting": "Sprague Dawley rats [4]; 2000 mg/kg/day oral gavage", "result": "2.35** g/L"},
      {"measurement": "Prothrombin Time (PT), Mean", "setting": "Sprague Dawley rats [4]; 2000 mg/kg/day oral gavage", "result": "10.69** sec"},
      {"measurement": "Activated Partial Thromboplastin Time (APTT), Mean", "setting": "Sprague Dawley rats [4]; [5]", "result": "15.73** sec"},
      {"measurement": "Fibrinogen (FIB), Mean", "setting": "Sprague Dawley rats [4]; [5]", "result": "2.26** g/L"},
      {"measurement": "Prothrombin Time (PT), Mean", "setting": "Sprague Dawley rats [4]; [5]", "result": "10.81** sec"}
    ]}
  ]
}
